Measured values published in patent US11787799B2 (priority 2015, dated 2023).
Like-named read-outs stand apart in the source and are kept apart here.

What was measured:
[1] = tested on: Coxsackievirus B1; assay: microbe, parasite or virus in culture; type: cell-based; conditions: read-out: EC50 CVB1
[2] = tested on: Echovirus 30; assay: microbe, parasite or virus in culture; type: cell-based; conditions: read-out: EC50 ECHO30
[3] = tested on: Vero 76
[4] = tested on: Coxsackievirus B5; assay: microbe, parasite or virus in culture; type: cell-based; conditions: read-out: EC50 CVB5
[5] = tested on: Coxsackievirus B2; assay: microbe, parasite or virus in culture; type: cell-based; conditions: read-out: EC50 CVB2
[6] = tested on: Echovirus 11; assay: microbe, parasite or virus in culture; type: cell-based; conditions: read-out: EC50 ECHO11
[7] = tested on: Echovirus 25; assay: microbe, parasite or virus in culture; type: cell-based; conditions: read-out: EC50 ECHO25
[8] = tested on: Poliovirus 1; assay: microbe, parasite or virus in culture; type: cell-based; conditions: read-out: EC50 PV1
[9] = tested on: RD cells
[10] = tested on: Enterovirus 71; assay: microbe, parasite or virus in culture; type: cell-based; conditions: read-out: EC50 EV71
[11] = tested on: MA-104
[12] = tested on: SARS Coronavirus; type: cell-based
[13] = tested on: Enterovirus D68/US/KY/14-18953; assay: Antiviral assay, Enterovirus D68 strain US/KY/14-18953 in RD cells; type: cell-based
[14] = tested on: Vero; conditions: read-out: CC50 (Yellow Fever Virus test)
[15] = tested on: Echovirus 7; assay: microbe, parasite or virus in culture; type: cell-based; conditions: read-out: EC50 ECHO07
[16] = tested on: Coxsackievirus B3-H3; assay: microbe, parasite or virus in culture; type: cell-based; conditions: read-out: EC50 CVB3-H3
[17] = tested on: Influenza A H1N1; assay: microbe, parasite or virus in culture; type: cell-based; conditions: read-out: EC50 Influenza A H1N1
[18] = tested on: Rabies; type: cell-based, rabies virus
[19] = tested on: Punta Toro virus; assay: microbe, parasite or virus in culture; type: cell-based; conditions: read-out: EC50 Punta Toro virus
[20] = tested on: Venezuelan Encephalitis; type: cell-based, Venezuelan encephalitis virus
[21] = tested on: Coxsackievirus B4; assay: microbe, parasite or virus in culture; type: cell-based; conditions: read-out: EC50 CVB4
[22] = tested on: Powassan; type: cell-based, Powassan virus
[23] = tested on: Echovirus 9; assay: microbe, parasite or virus in culture; type: cell-based; conditions: read-out: EC50 ECHO09
[24] = tested on: BHK; conditions: read-out: CC50 (Powassan test)
[25] = tested on: Japanese Encephalitis; type: cell-based
[26] = tested on: Yellow Fever Virus; assay: microbe, parasite or virus in culture; type: cell-based; conditions: read-out: EC50 Yellow Fever Virus
[27] = tested on: Measles; assay: microbe, parasite or virus in culture; type: cell-based; conditions: read-out: EC50 Measles
[28] = tested on: Enterovirus D68/US/Mo/14-18949; assay: Antiviral assay, Enterovirus D68 strain US/Mo/14-18949 in RD cells; type: cell-based
[29] = tested on: BHK-21; conditions: read-out: CC50 (Rabies test)
[30] = tested on: Echovirus 6; assay: microbe, parasite or virus in culture; type: cell-based; conditions: read-out: EC50 ECHO06
[31] = tested on: HeLa-RW cells
[32] = tested on: RSV (resp syncitial virus); assay: microbe, parasite or virus in culture; type: cell-based; conditions: read-out: EC50 RSV
[33] = tested on: Rift Valley virus; assay: organism not typed; type: cell-based; conditions: read-out: EC50 Rift Valley virus
[34] = tested on: Poliovirus 3; assay: microbe, parasite or virus in culture; type: cell-based; conditions: read-out: EC50 PV3
[35] = tested on: Coxsackievirus A9; assay: microbe, parasite or virus in culture; type: cell-based; conditions: read-out: EC50 COX A9
[36] = tested on: MDCK
[37] = tested on: Enterovirus D68/Fermon; assay: Antiviral assay, Enterovirus D68 strain Fermon in RD cells; type: cell-based
[38] = tested on: Chikungunya; type: cell-based, chikungunya virus
[39] = tested on: LLC cells
[40] = read-out: CC50 (Rift Valley virus test), with Rift Valley virus MP-12 test
[41] = read-out: CC50 (SARS Coronavirus test), with SARS Coronavirus Urbani test

SMILES | EC50 [1] | EC50 [2] | CC50 [3, 40] | CC50 [3, 41] | EC50 [4] | EC50 [5] | EC50 [7] | EC50 [8] | CC50 [9] | EC50 [10] | CC50 [11] | EC50 [12] | EC50 [13] | CC50 [14] | EC50 [15] | EC50 [16] | EC50 [17] | EC50 [18] | EC50 [19] | EC50 [20] | also measured
CC(C)n1ncc2c(C(=O)Nc3ccccc3F)cc(-c3cccs3)nc21 [JX-001] | 2400 ± 200 nM | 1200 nM | 50000 nM | 3300 nM | 2300 nM | 2800 ± 400 nM | 3000 nM | 7000 nM | 200000 nM | 1800 ± 500 nM | 4700 nM | 3200 nM | 500 ± 170 nM | 4800 nM | 2400 nM | 1400 ± 600 nM | > 100000 nM | > 100000 nM | > 39000 nM | > 980 nM | EC50 [6]: 1500 ± 400 nM; EC50 [21]: 2300 nM; EC50 [22]: > 33000 nM; EC50 [23]: 2100 ± 1200 nM; CC50 [24]: > 33000 nM; EC50 [25]: > 14 nM; EC50 [26]: > 4800 nM; EC50 [27]: > 4000 nM; EC50 [28]: 330 ± 50 nM; CC50 [29]: > 100000 nM; EC50 [30]: 2300 ± 900 nM; CC50 [31]: 12500 nM; EC50 [32]: 3400 nM; EC50 [33]: > 50000 nM; EC50 [34]: 7000 nM; EC50 [35]: 2600 ± 900 nM; CC50 [36]: > 100000 nM; EC50 [37]: 350 ± 50 nM; EC50 [38]: 310 nM
CC(C)n1ncc2c(C(=O)Nc3ccc(F)cc3F)cc(-c3cccs3)nc21 [JX-008] | 2300 nM | 800 nM | 77000 nM | > 100000 nM | 2300 nM | 2800 ± 400 nM | 1500 nM | > 25000 nM | 100000 nM | 1600 ± 400 nM | > 100000 nM | 68000 nM | 400 ± 170 nM | 50000 nM | 2400 nM | 1400 ± 500 nM | 70000 nM | > 100000 nM | 23000 nM | > 480 nM | EC50 [6]: 1400 ± 400 nM; CC50 [39]: > 200000 nM; EC50 [21]: 2300 nM; EC50 [22]: > 38000 nM; EC50 [23]: 1500 ± 1000 nM; CC50 [24]: 38000 nM; EC50 [25]: > 440 nM; EC50 [26]: 45000 nM; EC50 [27]: 34000 nM; EC50 [28]: 280 ± 80 nM; CC50 [29]: > 100000 nM; EC50 [30]: 1900 ± 700 nM; CC50 [31]: > 200000 nM; EC50 [32]: > 100000 nM; EC50 [33]: > 77000 nM; EC50 [34]: > 25000 nM; EC50 [35]: 2300 ± 800 nM; CC50 [36]: > 100000 nM; EC50 [37]: 330 ± 60 nM; EC50 [38]: > 660 nM
CC(C)n1ncc2c(C(=O)Nc3ccc(F)cc3)cc(-c3cccs3)nc21 [JX-017] | 900 ± 300 nM | 500 nM | 52000 nM | 10000 nM | 1000 ± 100 nM | 1000 ± 300 nM | 1200 nM | > 25000 nM | > 200000 nM | 900 ± 300 nM | > 100000 nM | > 10000 nM | 500 ± 170 nM | 9900 nM | 1300 ± 200 nM | 700 ± 200 nM | > 100000 nM | > 100000 nM | 12000 nM | 320 nM | CC50 [39]: > 200000 nM; EC50 [21]: 800 nM; EC50 [22]: 32000 nM; EC50 [23]: 600 nM; CC50 [24]: 37000 nM; EC50 [25]: > 430 nM; EC50 [26]: > 9900 nM; EC50 [27]: 8900 nM; EC50 [28]: 350 ± 60 nM; CC50 [29]: > 100000 nM; EC50 [30]: 1000 ± 400 nM; CC50 [31]: > 200000 nM; EC50 [32]: 69000 nM; EC50 [33]: > 52000 nM; EC50 [34]: > 25000 nM; EC50 [35]: 900 ± 500 nM; CC50 [36]: > 100000 nM; EC50 [37]: 330 ± 60 nM; EC50 [38]: 290 nM
